Experimental data: patent US10035804B2, “Spirodiamine derivatives as aldosterone synthase inhibitors” (Hoffmann-La Roche Inc., priority 2014, dated 2018)
pEC50: −log10 of the molar value.

What was measured:
human CYP11B1 = human CYP11B1 (Homo sapiens (Human), UniProt P15538); assay: G-402 cellular enzyme assay, human CYP11B1 (cortisol release); format: cell-based; conditions: G-402 cells expressing human CYP11B1; 1 μM Deoxycortisol; cortisol in supernatant after 16 h
Text: (§1) Herein we identified the use of the G-402 cell line as a host cell to ectopically express (transiently or stably) enzymes of the CYP11 family. Specifically we developed stable G-402 cells expressing ectopically human CYP11B1, human CYP11B2, human CYP11A1, cynmolgus CYP11B1 or cynomolgus CYP11B2 enzyme activity. Importantly the identified cell line G-402 expresses co-factors (adrenodoxin and adrenodoxin reductase) important for the activity of the CYP11 family and no relevant enzyme activity of the CYP11 family (in comparison to H295R cells) was detected in these cells. Therefore the G-402 cell line is uniquely suited as a host cell for the ectopic expression of enzymes from the CYP11 family.
(§2) G-402 cells can be obtained from ATCC (CRL-1440) and were originally derived from a renal leiomyoblastoma.
(§3) The expression plasmids contains the ORF for either human/cyno CYP11B1 or CYP11B2 under the control of a suitable promoter (CMV-promoter) and a suitable resistance marker (neomycin). Using standard techniques the expression plasmid is transfected into G-402 cells and these cells are then selected for expressing the given resistance markers. Individual cell-clones are then selected and assessed for displaying the desired enzymatic activity using 11-Deoxycorticosterone (Cyp11B2) or 11-Deoxycortisol (Cyp11B1) as a substrate.
(§4) G-402 cells expressing CYP11 constructs were established as described above and maintained in McCoy's 5a Medium Modified, ATCC Catalog No. 30-2007 containing 10% FCS and 400 μg/ml G418 (Geneticin) at 37° C. under an atmosphere of 5% CO2/95% air. Cellular enzyme assays were performed in DMEM/F12 medium containing 2.5% charcoal treated FCS and appropriate concentration of substrate (0.3-10 uM 11-Deoxycorticosterone, 11-Deoxycortisol or Corticosterone). For assaying enzymatic activity, cells were plated onto 96 well plates and incubated for 16 h. An aliquot of the supernatant is then transferred and analyzed for the concentration of the expected product (Aldosterone for CYP11B2; Cortisol for CYP11B1). The concentrations of these steroids can be determined using HTRF assays from CisBio analyzing either Aldosterone or Cortisol.
(§5) Inhibition of the release of produced steroids can be used as a measure of the respective enzyme inhibition by test compounds added during the cellular enzyme assay. The dose dependent inhibition of enzymatic activity by a compound is calculated by means of plotting added inhibitor concentrations (x-axes) vs. measured steroid/product level (y-axes). The inhibition is then calculated by fitting the following 4-parameter sigmoidal function (Morgan-Mercer-Flodin (MMF) model) to the raw data points using the least squares method:
(§6) [formula] wherein, A is the maximum y value, B is the EC50 factor determined using XLFit, C is the minimum y value and D is the slope value.
(§7) EC50 values for compounds claimed herein were tested with the G402-based assay system described. Cyp11B2 enzyme activity was tested in presence of 1 μM Deoxycorticosterone and variable amounts of inhibitors; Cyp11B1 enzyme activity was tested in presence of 1 μM Deoxycortisol and variable amounts of inhibitors.

human CYP11B2 = human CYP11B2 (Homo sapiens (Human), UniProt P19099); assay: G-402 cellular enzyme assay, human CYP11B2 (aldosterone release); format: cell-based; conditions: G-402 cells expressing human CYP11B2; 1 μM Deoxycorticosterone; aldosterone in supernatant after 16 h
Text: as §1, §2, §3, §4, §5, §6, §7

Sequence of human CYP11B2 (P19099 25-503): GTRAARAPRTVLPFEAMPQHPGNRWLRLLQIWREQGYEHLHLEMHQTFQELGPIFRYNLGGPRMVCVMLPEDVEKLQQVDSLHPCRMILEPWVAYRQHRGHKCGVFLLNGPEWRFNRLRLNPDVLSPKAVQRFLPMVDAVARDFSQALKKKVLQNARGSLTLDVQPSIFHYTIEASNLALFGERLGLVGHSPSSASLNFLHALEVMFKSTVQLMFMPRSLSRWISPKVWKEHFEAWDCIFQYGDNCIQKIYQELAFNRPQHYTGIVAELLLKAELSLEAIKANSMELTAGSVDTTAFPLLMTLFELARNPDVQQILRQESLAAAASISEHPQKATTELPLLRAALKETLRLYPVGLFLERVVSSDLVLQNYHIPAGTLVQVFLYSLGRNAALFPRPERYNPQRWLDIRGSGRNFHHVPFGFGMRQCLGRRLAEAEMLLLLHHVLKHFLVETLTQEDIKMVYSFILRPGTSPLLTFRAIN
Sequence of human CYP11B1 (P15538 25-503): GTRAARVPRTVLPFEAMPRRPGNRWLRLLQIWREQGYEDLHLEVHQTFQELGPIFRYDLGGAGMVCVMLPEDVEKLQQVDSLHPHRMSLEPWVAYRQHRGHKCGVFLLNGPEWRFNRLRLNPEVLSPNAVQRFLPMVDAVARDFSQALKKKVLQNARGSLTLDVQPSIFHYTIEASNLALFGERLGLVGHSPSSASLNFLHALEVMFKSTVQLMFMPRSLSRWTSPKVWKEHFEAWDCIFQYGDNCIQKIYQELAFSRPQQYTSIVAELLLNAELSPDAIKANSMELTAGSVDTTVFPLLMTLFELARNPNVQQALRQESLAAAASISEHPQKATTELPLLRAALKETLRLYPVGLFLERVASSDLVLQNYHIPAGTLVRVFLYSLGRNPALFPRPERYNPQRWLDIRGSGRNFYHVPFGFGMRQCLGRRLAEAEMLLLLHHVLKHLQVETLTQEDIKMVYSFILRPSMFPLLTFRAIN

| SMILES | pEC50 (human CYP11B1) | pEC50 (human CYP11B2) |
| --- | --- | --- |
| CC1c2cc(Cl)ccc2C(=O)N1c1cncc(N2CC3(CN(C(=O)c4cnn(C)c4)C3)C2)c1 (stereo not shown) [Example 18, 5-Chloro-3-methyl-2-[5-[2-(1-methylpyrazole-4-carbonyl)-2,6-diazaspiro[3.3]heptan-6-yl]-3-pyridyl]isoindolin-1-one] | 7.78 | 11.11 |
| Cn1cc(C(=O)N2CC3(C2)CN(c2cncc(N4C(=O)c5ccc(Cl)cc5C4(C)C)c2)C3)cn1 [Example 1, 5-Chloro-3,3-dimethyl-2-[5-[2-(1-methylpyrazole-4-carbonyl)-2,6-diazaspiro[3.3]-heptan-6-yl]-3-pyridyl]isoindolin-1-one] | 7.95 | 11.70 |
| CC1(C)c2cc(Cl)ccc2C(=O)N1c1cncc(N2CC3(CN(C(=O)c4cncc(C#N)c4)C3)C2)c1 [Example 36, 5-[6-[5-(6-Chloro-1,1-dimethyl-3-oxo-isoindolin-2-yl)-3-pyridyl]-2,6-diazaspiro[3.3]heptane-2-carbonyl]pyridine-3-carbonitrile] | 7.51 | 10.34 |
| Cc1nocc1C(=O)N1CC2(C1)CN(c1cncc(N3C(=O)c4ccc(Cl)cc4C3(C)C)c1)C2 [Example 27, 5-Chloro-3,3-dimethyl-2-[5-[2-(3-methylisoxazole-4-carbonyl)-2,6-diazaspiro[3.3]heptan-6-yl]-3-pyridyl]isoindolin-1-one] | 7.85 | 9.98 |
| Cc1ccncc1C(=O)N1CC2(C1)CN(c1cncc(N3C(=O)c4ccc(Cl)cc4C3(C)C)c1)C2 [Example 7, 5-Chloro-3,3-dimethyl-2-[5-[2-(4-methylpyridine-3-carbonyl)-2,6-diazaspiro[3.3]heptan-6-yl]-3-pyridyl]isoindolin-1-one] | 7.59 | 10.86 |
| Cc1cnc(C(=O)N2CC3(C2)CN(c2cncc(N4C(=O)c5ccc(Cl)cc5C4(C)C)c2)C3)nc1 [Example 34, 5-Chloro-3,3-dimethyl-2-[5-[2-(5-methylpyrimidine-2-carbonyl)-2,6-diazaspiro[3.3]heptan-6-yl]-3-pyridyl]isoindolin-1-one] | 8.02 | 10.01 |
| Cn1ccnc1C(=O)N1CC2(C1)CN(c1cncc(N3C(=O)c4ccc(C#N)cc4C3(C)C)c1)C2 [Example 11, 3,3-Dimethyl-2-[5-[2-(1-methylimidazole-2-carbonyl)-2,6-diazaspiro[3.3]heptan-6-yl]-3-pyridyl]-1-oxo-isoindoline-5-carbonitrile] | 8.32 | 10.60 |
| CC1(C)c2cc(Cl)ccc2C(=O)N1c1cncc(N2CC3(CN(C(=O)c4cnccn4)C3)C2)c1 [Example 38, 5-Chloro-3,3-dimethyl-2-[5-[2-(pyrazine-2-carbonyl)-2,6-diazaspiro[3.3]heptan-6-yl]-3-pyridyl]isoindolin-1-one] | 8.64 | 10.57 |
| Cc1cnc(C(=O)N2CC3(C2)CN(c2cncc(N4C(=O)c5ccc(Cl)cc5C4(C)C)c2)C3)cn1 [Example 30, 5-Chloro-3,3-dimethyl-2-[5-[2-(5-methylpyrazine-2-carbonyl)-2,6-diazaspiro[3.3]heptan-6-yl]-3-pyridyl]isoindolin-1-one] | 8.43 | 10.34 |
| COc1nccnc1C(=O)N1CC2(C1)CN(c1cncc(N3C(=O)c4ccc(Cl)cc4C3(C)C)c1)C2 [Example 37, 5-Chloro-2-[5-[2-(3-methoxypyrazine-2-carbonyl)-2,6-diazaspiro[3.3]heptan-6-yl]-3-pyridyl]-3,3-dimethyl-isoindolin-1-one] | 7.79 | 10.12 |
| Cc1nc(C(=O)N2CC3(C2)CN(c2cncc(N4C(=O)c5ccc(Cl)cc5C4(C)C)c2)C3)co1 [Example 45, 5-Chloro-3,3-dimethyl-2-[5-[2-(2-methyloxazole-4-carbonyl)-2,6-diazaspiro[3.3]heptan-6-yl]-3-pyridyl]isoindolin-1-one] | 8.68 | 10.17 |
| Cn1cc(C(=O)N2CC3(C2)CN(c2cncc(N4C(=O)c5ccc(Cl)cc5C45CC5)c2)C3)cn1 [Example 19, 5′-Chloro-2′-[5-[2-(1-methylpyrazole-4-carbonyl)-2,6-diazaspiro[3.3]heptan-6-yl]-3-pyridyl]spiro[cyclopropane-1,3′-isoindoline]-1′-one] | 8.11 | 11.54 |
| COc1ccc2c(n1)C(C)(C)N(c1cncc(N3CC4(CN(C(=O)c5cnccc5C)C4)C3)c1)C2=O [Example 16, 2-Methoxy-7,7-dimethyl-6-[5-[2-(4-methylpyridine-3-carbonyl)-2,6-diazaspiro[3.3]heptan-6-yl]-3-pyridyl]pyrrolo[3,4-b]pyridin-5-one] | 7.53 | 10.08 |
| CC(C)n1cc(C(=O)N2CC3(C2)CN(c2cncc(N4C(=O)c5ccc(Cl)cc5C4(C)C)c2)C3)cn1 [Example 3, 5-Chloro-2-[5-[2-(1-isopropylpyrazole-4-carbonyl)-2,6-diazaspiro[3.3]heptan-6-yl]-3-pyridyl]-3,3-dimethyl-isoindolin-1-one] | 7.96 | 11.08 |
| COc1ccncc1C(=O)N1CC2(C1)CN(c1cncc(N3C(=O)c4ccc(Cl)cc4C3(C)C)c1)C2 [Example 24, 5-Chloro-2-[5-[2-(4-methoxypyridine-3-carbonyl)-2,6-diazaspiro[3.3]heptan-6-yl]-3-pyridyl]-3,3-dimethyl-isoindolin-1-one] | 7.77 | 10.35 |
| Cn1ccnc1C(=O)N1CC2(C1)CN(c1cncc(N3C(=O)c4ccc(Cl)cc4C3(C)C)c1)C2 [Example 4, 5-Chloro-3,3-dimethyl-2-[5-[2-(1-methylimidazole-2-carbonyl)-2,6-diazaspiro[3.3]heptan-6-yl]-3-pyridyl]isoindolin-1-one] | 8.96 | 11.00 |
| CC1(C)c2cc(Cl)ccc2C(=O)N1c1cncc(N2CC3(CN(C(=O)c4cocn4)C3)C2)c1 [Example 42, 5-Chloro-3,3-dimethyl-2-[5-[2-(oxazole-4-carbonyl)-2,6-diazaspiro[3.3]heptan-6-yl]-3-pyridyl]isoindolin-1-one] | 8.98 | 10.99 |
| CC1(C)c2cc(Cl)ccc2C(=O)N1c1cncc(N2CC3(CN(C(=O)c4cncnc4)C3)C2)c1 [Example 40, 5-Chloro-3,3-dimethyl-2-[5-[2-(pyrimidine-5-carbonyl)-2,6-diazaspiro[3.3]heptan-6-yl]-3-pyridyl]isoindolin-1-one] | 7.92 | 10.27 |
| COc1ccc2c(n1)C(C)(C)N(c1cncc(N3CC4(CN(C(=O)c5ccnn5C)C4)C3)c1)C2=O [Example 17, 2-Methoxy-7,7-dimethyl-6-[5-[2-(2-methylpyrazole-3-carbonyl)-2,6-diazaspiro[3.3]heptan-6-yl]-3-pyridyl]pyrrolo[3,4-b]pyridin-5-one] | 7.48 | 9.05 |
| Cn1cc(C(=O)N2CC3(C2)CN(c2cncc(N4C(=O)c5ccc(C#N)cc5C4(C)C)c2)C3)cn1 [Example 8, 3,3-Dimethyl-2-[5-[2-(1-methylpyrazole-4-carbonyl)-2,6-diazaspiro[3.3]heptan-6-yl]-3-pyridyl]-1-oxo-isoindoline-5-carbonitrile] | < 7.52 | 9.95 |
| Cc1ncoc1C(=O)N1CC2(C1)CN(c1cncc(N3C(=O)c4ccc(Cl)cc4C3(C)C)c1)C2 [Example 41, 5-Chloro-3,3-dimethyl-2-[5-[2-(4-methyloxazole-5-carbonyl)-2,6-diazaspiro[3.3]heptan-6-yl]-3-pyridyl]isoindolin-1-one] | 7.55 | 9.96 |
| CCn1cc(C(=O)N2CC3(C2)CN(c2cncc(N4C(=O)c5ccc(Cl)cc5C4(C)C)c2)C3)cn1 [Example 2, 5-Chloro-2-[5-[2-(1-ethylpyrazole-4-carbonyl)-2,6-diazaspiro[3.3]heptan-6-yl]-3-pyridyl]-3,3-dimethyl-isoindolin-1-one] | 7.95 | 11.52 |
| CCn1cc(C(=O)N2CC3(C2)CN(c2cncc(N4C(=O)c5ccc(C#N)cc5C4(C)C)c2)C3)cn1 [Example 9, 2-[5-[2-(1-Ethylpyrazole-4-carbonyl)-2,6-diazaspiro[3.3]heptan-6-yl]-3-pyridyl]-3,3-dimethyl-1-oxo-isoindoline-5-carbonitrile] | 7.61 | 11.05 |
